Reference: US6790470B1, “Aspartame derivative crystal and process for producing the same” (Ajinomoto Co., Inc., priority 1998, dated 2004)

How the values were obtained:
[1] = Inherent dissolution rate of tabletted dried crystals in ion exchanged water (Test Example 1); assay type: physicochemical; conditions: for amount of crystals dissolved: 300 mg tablet, 300 ml ion exchanged water, 20° C., 200 rpm
Description: Measurement of the Dissolution Rate for the Dried Crystals The dissolution rates of the A-type crystals (Reference Example 2(b)) and the C-type crystals (Example 1) were determined in the following method. That is, 300 mg each of the crystals were introduced into a tabletting mortar (tablet machine) with an internal diameter of 8 mm and a depth of 12 mm, and tabletted at 300 kg/cm2G with “High Pressure Jack J-1 type” (manufactured by Iuchi Seieido) to prepare a sample for measurement of dissolution rate. For measurement of the dissolution rate, the tabletting mortar with only the tabletting face exposed was introduced into 300 ml ion exchanged water kept at 20° C. at a stirring in the number of revolution of 200 rpm, and the inherent dissolution rate was determined using “DISSOLUTION TESTER” (NTR-6100) (manufactured by Toyama Sangyo K. K.).

[2] = Dissolution time, Japanese Pharmacopoeia Paddle method (Test Example 2); assay type: physicochemical; conditions: 0.5 g sample in 900 ml water (20° C.), 100 rpm, end point visually confirmed
Description: Measurement of the Dissolution Rates of the C-type Crystals (Original Powder) and Granules Thereof 0.5 g of the sample was introduced into 900 ml water (20° C.) in a 1-L elution tester (the Japanese Pharmacopoeia, Paddle method, 100 rpm) and its dissolution time was measured (end point was visually confirmed). That is, the C-type crystals (original powder with an average particle size of about 50 μm) obtained in Example 1 above and the granules (particle size of 100 to 500 μm and 500 to 1,400 μm) of C-type crystals obtained in Example 2 above were examined for measurements of their dissolution times in the same manner as described above.

[3] = weight ratio, cited from earlier work

amount of crystals dissolved ([1]; 30 minutes) [mg]	amount of crystals dissolved ([1]; 60 minutes) [mg]	amount of crystals dissolved ([1]; 120 minutes) [mg]	dissolution time [2] [min]	dissolution rate as compared with the A-type crystals ([1]; comparison with A-type crystals)	SMILES	efficacy of sweetness relative to Aspartame ([3]; versus Aspartame)	efficacy of sweetness relative to sucrose ([3]; versus sucrose (table sugar))
17	34	69	–	–	COC(=O)[C@H](Cc1ccccc1)NC(=O)[C@H](CC(=O)O)NCCC(C)(C)C [A-type crystals, N-[N-(3,3-dimethylbutyl)-L-α-aspartyl]-L-phenylalanine methyl ester, reference compound]	–	–
25	42	86	55	significantly improved dissolution rate	COC(=O)[C@H](Cc1ccccc1)NC(=O)[C@H](CC(=O)O)NCCC(C)(C)C [C-type crystals, N-[N-(3,3-dimethylbutyl)-L-α-aspartyl]-L-phenylalanine methyl ester]	–	–
–	–	–	–	–	COC(=O)[C@H](Cc1ccccc1)NC(=O)[C@H](CC(=O)O)NCCC(C)(C)C [N-(3,3-dimethylbutyl)-APM, N-[N-(3,3-dimethylbutyl)-L-α-aspartyl]-L-phenylalanine methyl ester]	at least 50 times	about 10,000 times
